Laboratory results taken from patent publication US20250127874A1, “CMV EPITOPES” (The Council of the Queensland Institute of Medical Research, priority 2016, published 2025).

Tested on: CD8+ T cells
Test: PBMC from HSCT recipients stimulated with HLA-matched peptide epitopes, cultured two weeks with IL-2, IFN-γ production by CD8+ T cells on recall
Source text: To assess the impact of epitope variation and co-infection on IE-1 specific T cell immunity, PBMC samples from HSCT recipients showing evidence of viral reactivation were stimulated with all potentially HLA-matched variant peptide epitopes then cultured in vitro for two weeks in the presence of IL-2. PBMC from nine HSCT recipients showing immune reconstitution with no evidence of CMV reactivation were also stimulated with HLA-matched variant peptide epitopes (Table 2). As a control, PBMC were stimulated with at least two conserved HLA matched epitopes.

Row | Sequence | T cell response against epitope (HLA B44-positive HSCT recipients with reactivation (7)) | T cell response against epitope (recipient 17 (HLA-B8), longitudinal analysis during and after viral reactivation)
1 | EDAIAAYTL (Cytomegalovirus) | failed to induce a significant T cell response in any recipient | –
2 | VTEHDTTLY | – | absence of a detectable response
